Patent US9902696B2, “1,4-substituted piperidine derivatives” (Cephalon, Inc., priority 2015, dated 2018)
pIC50: −log10 of the molar value. Counter-ions that a name gives are not always drawn.

Molecular target: T1, recombinant human baculovirus-expressed GST-tagged FASN (Homo sapiens, UniProt P49327)
T1 construct: GST
Assay: FASN enzyme activity assay, fluorescence-based detection of CoA with CPM
Type: biochemical
Conditions: 5 nM FASN, 150 μM NADPH, 10 μM acetyl-CoA, 25 μM malonyl-CoA, 90 minutes incubation; read-out: IC50 data for Compounds of Formulae I-V/V(a): Activity
How it was run: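 Human GST-tagged FASN, baculovirus-expressed (5 nM), in 50 mM HEPES pH 7.5 with 150 μM NADPH, 10 μM acetyl-CoA, 25 μM malonyl-CoA, 0.5% DMSO; malonyl-CoA-started, 90 min. Released CoA detected with CPM (50 μM dilution), 30 min, fluorescence ex 390/em 530. IC50 from variable-slope sigmoidal fit of % inhibition versus log concentration.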

T1 sequence (P49327 whole entry): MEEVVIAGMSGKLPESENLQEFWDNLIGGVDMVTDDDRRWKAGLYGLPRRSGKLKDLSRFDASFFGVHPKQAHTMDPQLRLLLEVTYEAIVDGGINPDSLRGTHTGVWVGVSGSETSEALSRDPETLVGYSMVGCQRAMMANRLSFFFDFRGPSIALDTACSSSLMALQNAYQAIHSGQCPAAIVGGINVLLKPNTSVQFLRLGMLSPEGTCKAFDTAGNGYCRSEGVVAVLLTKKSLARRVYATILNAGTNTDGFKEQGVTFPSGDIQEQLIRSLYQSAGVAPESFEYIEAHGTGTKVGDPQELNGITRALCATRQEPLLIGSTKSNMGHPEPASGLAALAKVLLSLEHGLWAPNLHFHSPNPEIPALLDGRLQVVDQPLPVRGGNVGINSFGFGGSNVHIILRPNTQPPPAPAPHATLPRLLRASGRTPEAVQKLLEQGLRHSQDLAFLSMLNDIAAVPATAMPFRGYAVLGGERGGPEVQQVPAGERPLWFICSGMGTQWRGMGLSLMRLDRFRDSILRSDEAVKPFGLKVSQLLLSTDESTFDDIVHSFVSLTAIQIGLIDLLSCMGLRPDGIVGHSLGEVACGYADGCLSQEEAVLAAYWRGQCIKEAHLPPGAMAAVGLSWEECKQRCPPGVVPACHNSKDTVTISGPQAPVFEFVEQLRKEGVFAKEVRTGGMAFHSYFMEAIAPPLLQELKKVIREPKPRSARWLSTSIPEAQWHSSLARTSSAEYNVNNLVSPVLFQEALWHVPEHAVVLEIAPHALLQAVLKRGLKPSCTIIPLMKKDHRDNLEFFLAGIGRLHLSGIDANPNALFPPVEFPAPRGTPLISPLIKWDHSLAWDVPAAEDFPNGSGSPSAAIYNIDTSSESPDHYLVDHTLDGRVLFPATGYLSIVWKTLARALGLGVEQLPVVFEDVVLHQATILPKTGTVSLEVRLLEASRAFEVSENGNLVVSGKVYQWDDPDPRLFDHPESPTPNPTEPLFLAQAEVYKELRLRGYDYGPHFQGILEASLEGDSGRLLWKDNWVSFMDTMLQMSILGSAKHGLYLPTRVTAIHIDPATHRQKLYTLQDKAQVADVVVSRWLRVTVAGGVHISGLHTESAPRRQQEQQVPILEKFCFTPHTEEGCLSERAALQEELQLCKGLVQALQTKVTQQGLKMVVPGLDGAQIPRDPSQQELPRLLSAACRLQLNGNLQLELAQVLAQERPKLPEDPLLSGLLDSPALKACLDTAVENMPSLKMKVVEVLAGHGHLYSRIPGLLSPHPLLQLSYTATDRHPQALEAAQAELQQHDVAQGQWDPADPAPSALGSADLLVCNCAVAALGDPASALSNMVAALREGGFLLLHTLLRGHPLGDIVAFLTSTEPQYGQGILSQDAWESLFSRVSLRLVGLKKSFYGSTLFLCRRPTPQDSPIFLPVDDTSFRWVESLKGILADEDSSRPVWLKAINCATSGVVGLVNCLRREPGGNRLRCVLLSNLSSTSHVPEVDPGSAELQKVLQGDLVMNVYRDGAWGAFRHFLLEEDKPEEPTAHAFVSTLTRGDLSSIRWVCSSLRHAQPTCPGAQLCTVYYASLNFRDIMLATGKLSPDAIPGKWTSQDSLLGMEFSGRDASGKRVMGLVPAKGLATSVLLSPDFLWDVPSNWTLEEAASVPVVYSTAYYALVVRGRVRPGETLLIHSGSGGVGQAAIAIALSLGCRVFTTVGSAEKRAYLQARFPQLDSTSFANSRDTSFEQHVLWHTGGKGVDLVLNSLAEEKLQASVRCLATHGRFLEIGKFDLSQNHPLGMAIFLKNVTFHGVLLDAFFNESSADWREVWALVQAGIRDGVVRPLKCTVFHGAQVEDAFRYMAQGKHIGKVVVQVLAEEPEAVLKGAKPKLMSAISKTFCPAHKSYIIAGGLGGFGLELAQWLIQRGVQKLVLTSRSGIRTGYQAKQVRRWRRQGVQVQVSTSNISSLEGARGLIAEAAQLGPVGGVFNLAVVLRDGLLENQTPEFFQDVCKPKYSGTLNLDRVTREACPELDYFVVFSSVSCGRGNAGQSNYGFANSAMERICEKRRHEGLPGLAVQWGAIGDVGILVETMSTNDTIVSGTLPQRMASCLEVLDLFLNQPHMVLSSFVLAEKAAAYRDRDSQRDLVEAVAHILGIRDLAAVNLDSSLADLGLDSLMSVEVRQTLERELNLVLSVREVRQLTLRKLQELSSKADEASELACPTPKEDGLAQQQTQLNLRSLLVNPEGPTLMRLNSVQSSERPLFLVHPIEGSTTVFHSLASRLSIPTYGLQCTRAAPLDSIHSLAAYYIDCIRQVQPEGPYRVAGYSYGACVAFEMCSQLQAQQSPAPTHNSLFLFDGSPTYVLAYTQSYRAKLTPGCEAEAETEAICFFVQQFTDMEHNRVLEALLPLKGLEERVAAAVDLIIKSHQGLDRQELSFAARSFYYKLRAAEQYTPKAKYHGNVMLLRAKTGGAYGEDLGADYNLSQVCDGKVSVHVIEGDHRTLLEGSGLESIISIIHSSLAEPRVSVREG

pIC50	SMILES
5.00 to 6.00	O=C(C1CCC1)N1CCC(Oc2ccc(-c3cncc(-c4ccccc4)c3)cc2)CC1 [Example 385, Cyclobutyl-{4-[4-(5-phenylpyridin-3-yl)-phenoxy]-piperidin-1-yl}-methanone, TFA salt]
5.00 to 6.00	CCC(=O)N1CCC(Oc2ccc(-c3ccc(N4CCOCC4)nc3)cc2)CC1 [Example 386, 1-{4-[4-(6-Morpholin-4-yl-pyridin-3-yl)-phenoxy]-piperidin-1-yl}-propan-1-one]
5.00 to 6.00	O=C(C1CC1)N1CCC(Oc2ccc(-c3ccc(N4CCOCC4)nc3)cc2)CC1 [Example 387, Cyclopropyl-{4-[4-(6-morpholin-4-yl-pyridin-3-yl)-phenoxy]-piperidin-1-yl}-methanone]
5.00 to 6.00	O=C(C1CCC1)N1CCC(Oc2ccc(-c3ccc(N4CCOCC4)nc3)cc2)CC1 [Example 388, Cyclobutyl-{4-[4-(6-morpholin-4-yl-pyridin-3-yl)-phenoxy]-piperidin-1-yl}-methanone]
5.00 to 6.00	CCC(=O)N1CCC(Oc2ccc(-c3ccc(Oc4ccccc4)nc3)cc2)CC1 [Example 389, 1-{4-[4-(6-Phenoxy-pyridin-3-yl)-phenoxy]-piperidin-1-yl}-propan-1-one]
5.00 to 6.00	O=C(C1CC1)N1CCC(Oc2ccc(-c3ccc(Oc4ccccc4)nc3)cc2)CC1 [Example 390, Cyclopropyl-{4-[4-(6-phenoxy-pyridin-3-yl)-phenoxy]-piperidin-1-yl}-methanone]
5.00 to 6.00	O=C(C1CCC1)N1CCC(Oc2ccc(-c3ccc(Oc4ccccc4)nc3)cc2)CC1 [Example 391, Cyclobutyl-{4-[4-(6-phenoxy-pyridin-3-yl)-phenoxy]-piperidin-1-yl}-methanone]
5.00 to 6.00	O=C(C1CC1)N1CCC(Oc2ccc(-c3ccc(Nc4ccccc4)nc3)cc2)CC1 [Example 393, Cyclopropyl-{4-[4-(6-phenylaminopyridin-3-yl)-phenoxy]-piperidin-1-yl}-methanone, TFA salt]
5.00 to 6.00	O=C(C1CCC1)N1CCC(Oc2ccc(-c3ccc(Nc4ccccc4)nc3)cc2)CC1 [Example 394, Cyclobutyl-{4-[4-(6-phenylaminopyridin-3-yl)-phenoxy]-piperidin-1-yl}-methanone, TFA salt]
5.00 to 6.00	CCC(=O)N1CCC(Oc2ccc(-c3cccc(-c4ccccn4)c3F)cc2)CC1 [Example 395, 1-[4-(2′-Fluoro-3′-pyridin-2-yl-biphenyl-4-yloxy)-piperidin-1-yl]-propan-1-one]
5.00 to 6.00	O=C(C1CC1)N1CCC(Oc2ccc(-c3cccc(-c4ccccn4)c3F)cc2)CC1 [Example 396, Cyclopropyl-[4-(2′-fluoro-3′-pyridin-2-yl-biphenyl-4-yloxy)-piperidin-1-yl]-methanone]
5.00 to 6.00	CCC(=O)N1CCC(Oc2ccc(-c3cncc(Oc4ccccc4)c3)cc2)CC1 [Example 397, 1-{4-[4-(5-Phenoxypyridin-3-yl)-phenoxy]-piperidin-1-yl}-propan-1-one, TFA]

The remaining lines, values behind:

SMILES	pIC50
Cc1c(-c2ccc(OC3CCN(C(=O)C(F)(F)F)CC3)cc2)ccc2cccnc12 [Example 357, 2,2,2-Trifluoro-1-{4-[4-(8-methyl-quinolin-7-yl)-phenoxy]-piperidin-1-yl}-ethanone]	5.00 to 6.00
Cc1c(-c2ccc(OC3CCN(C(=O)C(C)(F)F)CC3)cc2)ccc2cccnc12 [Example 358, 2,2-Difluoro-1-{4-[4-(8-methylquinolin-7-yl)-phenoxy]-piperidin-1-yl}-propan-1-one, HCl]	6.00 to 7.00
Cc1c(-c2ccc(OC3CCN(C(=O)C(C)F)CC3)cc2)ccc2cccnc12 (centres unmarked) [Example 359, 2-Fluoro-1-{4-[4-(8-methylquinolin-7-yl)-phenoxy]-piperidin-1-yl}-propan-1-one, HCl]	7.00 to 9.00
Cc1c(-c2ccc(O[C@@H]3C[C@H]4CC[C@@H](C3)N4C(=O)[C@H]3CCCO3)cc2)ccc2cccnc12 [Example 360, {exo-3-[4-(8-Methylquinolin-7-yl)-phenoxy]-8-aza-bicyclo[3.2.1]oct-8-yl}-(R)-tetrahydrofuran-2-yl-methanone, HCl]	6.00 to 7.00
CCC(=O)N1[C@@H]2CC[C@H]1C[C@H](Oc1ccc(-c3ccc4cccnc4c3C)cc1)C2 [Example 361, 1-{exo-3-[4-(8-Methylquinolin-7-yl)-phenoxy]-8-aza-bicyclo[3.2.1]oct-8-yl}-propan-1-one HCl]	5.00 to 6.00
Cc1c(-c2ccc(O[C@H]3CCN(C(=O)[C@H]4CCCO4)C[C@H]3F)cc2)ccc2cccnc12 [Example 366, {cis-3-Fluoro-4-[4-(8-methylquinolin-7-yl)-phenoxy]-piperidin-1-yl}-(R)-tetrahydrofuran-2-yl-methanone HCl]	7.00 to 9.00
CCC(=O)N1[C@@H]2CC[C@H]1C[C@@H](Oc1ccc(-c3ccc4cccnc4c3C)cc1)C2 [Example 369, 1-{endo-3-[4-(8-Methylquinolin-7-yl)-phenoxy]-8-aza-bicyclo[3.2.1]oct-8-yl}-propan-1-one, HCl]	6.00 to 7.00
Cc1c(-c2ccc(O[C@H]3C[C@H]4CC[C@@H](C3)N4C(=O)C3CC3)cc2)ccc2cccnc12 [Example 370, Cyclopropyl-{endo-3-[4-(8-methylquinolin-7-yl)-phenoxy]-8-aza-bicyclo-[3.2.1]oct-8-yl}-methanone, HCl]	6.00 to 7.00
Cc1c(-c2ccc(O[C@H]3C[C@H]4CC[C@@H](C3)N4C(=O)[C@H]3CCCO3)cc2)ccc2cccnc12 [Example 371, {endo-3-[4-(8-Methylquinolin-7-yl)-phenoxy]-8-aza-bicyclo[3.2.1]oct-8-yl}-(R)-tetrahydrofuran-2-yl-methanone, HCl]	7.00 to 9.00
Cc1c(-c2ccc(OC3CCN(C(=O)C4CC4)CC3C)cc2)ccc2cccnc12 (centres unmarked) [Example 376, Cyclopropyl-{3-methyl-4-[4-(8-methylquinolin-7-yl)-phenoxy]-piperidin-1-yl}-methanone, TFA salt]	7.00 to 9.00
CCC(=O)N1CCC(Oc2ccc(-c3ccc(-c4ccccc4)nc3)cc2)CC1 [Example 378, 1-{4-[4-(6-Phenyl-pyridin-3-yl)-phenoxy]-piperidin-1-yl}-propan-1-one]	5.00 to 6.00
CC(C)C(=O)N1CCC(Oc2ccc(-c3ccc(-c4ccccc4)nc3)cc2)CC1 [Example 379, 2-Methyl-1-{4-[4-(6-phenylpyridin-3-yl)-phenoxy]-piperidin-1-yl}-propan-1-one]	5.00 to 6.00
O=C(C1CC1)N1CCC(Oc2ccc(-c3ccc(-c4ccccc4)nc3)cc2)CC1 [Example 380, Cyclopropyl-{4-[4-(6-phenyl-pyridin-3-yl)-phenoxy]-piperidin-1-yl}-methanone]	5.00 to 6.00
O=C(C1CCC1)N1CCC(Oc2ccc(-c3ccc(-c4ccccc4)nc3)cc2)CC1 [Example 381, Cyclobutyl-{4-[4-(6-phenyl-pyridin-3-yl)-phenoxy]-piperidin-1-yl}-methanone]	6.00 to 7.00
CCC(=O)N1CCC(Oc2ccc(-c3cncc(-c4ccccc4)c3)cc2)CC1 [Example 382, 1-{4-[4-(5-Phenylpyridin-3-yl)-phenoxy]-piperidin-1-yl}-propan-1-one]	5.00 to 6.00
CC(C)C(=O)N1CCC(Oc2ccc(-c3cncc(-c4ccccc4)c3)cc2)CC1 [Example 383]	5.00 to 6.00
O=C(C1CC1)N1CCC(Oc2ccc(-c3cncc(-c4ccccc4)c3)cc2)CC1 [Example 384, Cyclopropyl-{4-[4-(5-phenyl-pyridin-3-yl)-phenoxy]-piperidin-1-yl}-methanone, TFA salt]	5.00 to 6.00
